Test results: patent US20060211697A1, “2-(2 Or 4-substituted aryloxy)-phenol derivatives as antibacterial agents” (priority 2004, published 2006)
Converted amounts (≈) assume the structure as drawn.

Experiments:
S. aureus 29213 = assay: MIC, broth dilution method, S. aureus; assay type: cell-based; conditions: Staphylococcus aureus, 29213; Gram-positive bacteria; in vitro, broth dilution; read-out: MIC S. aureus 29213
Procedure: (§1) Minimum Inhibition Concentration (MIC), Broth Dilution Method:
(§2) The compounds of the present invention were tested against an assortment of Gram positive and Gram negative organisms using standard microtitration techniques well known to those skilled in the art. Cultures of bacteria are initially brought up from the freezer by streaking a loopful onto agar plates under the appropriate conditions. For instance bacterial stocks are streaked onto chocolate agar and then incubated for 18 hours at 35-37° C. in a 5% CO2 incubator. Five to ten colonies are picked from the chocolate agar plate for subculture to Brain-Heart infusion (BHI) broth, Mueller Hinton broth, or BHI containing 4% serum and incubated under the appropriate conditions. The ability of the test compound to act as an antimicrobial is determined by the ability to inhibit bacterial growth in vitro. The optical density of the culture of organisms in the presence of an active compound is compared to the optical density of the same organism untreated. The activity of the compounds is described as either negative or the lowest concentration inhibiting growth (Minimum Inhibitory Concentration [MIC]).

S. pneumoniae 11733 = assay: MIC, broth dilution method, S. pneumoniae; assay type: cell-based; conditions: Streptococcus pneumoniae, 11733; Gram-positive bacteria; in vitro, broth dilution; read-out: MIC S. pneumoniae 11733
Procedure: as §1, §2

H. influenzae 43095 = assay: MIC, broth dilution method, H. influenzae; assay type: cell-based; conditions: Haemophilus influenzae, 43095; Gram-negative bacteria; in vitro, broth dilution; read-out: MIC H. influenzae 43095
Procedure: as §1, §2

E. coli 43888 = assay: MIC, broth dilution method, E. coli; assay type: cell-based; conditions: Escherichia coli, 43888; Gram-negative bacteria; in vitro, broth dilution; read-out: MIC E. coli 43888
Procedure: as §1, §2

Row | SMILES | MIC (S. aureus 29213) | MIC (S. pneumoniae 11733) | melting point | MIC (H. influenzae 43095) | MIC (E. coli 43888)
1 | Cc1ccc(Oc2ccc(C3NC(C(=O)O)CCS3)cc2)c(O)c1 (centres unmarked) [Example 8, 2-[4-(2-Hydroxy-4-methyl-phenoxy)-phenyl]-[1, 3]thiazinane-4-carboxylic acid] | 0.5 µg/mL (≈ 1.45 µM) | 4 µg/mL (≈ 11.6 µM) | 140 to 145 °C (dec.) | 0.5 µg/mL (≈ 1.45 µM) | 4 µg/mL (≈ 11.6 µM)
2 | Cc1ccc(Oc2ccc(C3NC(C(=O)O)CS3)cc2C#N)c(O)c1 (centres unmarked) [Example 9, 2-[3-Cyano-4-(2-hydroxy-4-methyl-phenoxy)-phenyl]-thiazolidine-4-carboxylic acid] | 2 µg/mL (≈ 5.61 µM) | 4 µg/mL (≈ 11.2 µM) | 150 to 152 °C | 4 µg/mL (≈ 11.2 µM) | 4 µg/mL (≈ 11.2 µM)
3 | Cc1ccc(Oc2ccc(C3NC(C(=O)O)CCS3)cc2C#N)c(O)c1 (centres unmarked) [Example 10, 2-[3-Cyano-4-(2-hydroxy-4-methyl-phenoxy)-phenyl]-[1,3]thiazinane-4-carboxylic acid] | 2 µg/mL (≈ 5.4 µM) | 2 µg/mL (≈ 5.4 µM) | 147 to 150 °C (dec.) | 2 µg/mL (≈ 5.4 µM) | 4 µg/mL (≈ 10.8 µM)
4 | Cc1ccc(Oc2ccc(-c3nnn[nH]3)cc2)c(O)c1 [Example 13, 5-Methyl-2-[4-(1H-tetrazol-5-yl)-phenoxy]-phenol and 5-methyl-2-[4-(2H-tetrazol-5-yl)-phenoxy]-phenol] | 7.9 µg/mL (≈ 29.4 µM) | 7.9 µg/mL (≈ 29.4 µM) | 173 to 175 °C | 2 µg/mL (≈ 7.46 µM) | 62.5 µg/mL (≈ 233 µM)
5 | Cc1ccc(Oc2ccccc2-c2nnn[nH]2)c(O)c1 [Example 14, 5-Methyl-2-[2-(1H-tetrazol-5-yl)-phenoxy]-phenol and 5-methyl-2-[2-(2H-tetrazol-5-yl)-phenoxy]-phenol] | 0.002 µg/mL (≈ 0.00746 µM) | 2 µg/mL (≈ 7.46 µM) | 205 to 207 °C | 0.125 µg/mL (≈ 0.466 µM) | 0.125 µg/mL (≈ 0.466 µM)
6 | Nc1nnc(-c2ccccc2Oc2ccc(F)cc2O)s1 [Example 22, 2-[2-(5-Amino-[1,3,4]thiadiazol-2-yl)-phenoxy]-5-fluoro-phenol] | 12.5 µg/mL (≈ 41.2 µM) | 25 µg/mL (≈ 82.4 µM) | 250 to 255 °C (dec.) | > 25 µg/mL | > 25 µg/mL
7 | Cc1ccc(Oc2ccc(-c3nnc(N)s3)cc2)c(O)c1 [Example 23, 2-[4-(5-Amino-[1,3,4]thiadiazol-2-yl)-phenoxy]-5-methyl-phenol] | 1.6 µg/mL (≈ 5.34 µM) | 12.5 µg/mL (≈ 41.8 µM) | 240 to 243 °C (dec.) | > 25 µg/mL | 25 µg/mL (≈ 83.5 µM)
